Test results from the supplement of paper PMC11208160.

Experiment: recombinant UMI read abundance after kanamycin selection (control-corrected) (log10(CPM+1)); higher = more efficient recombination; extreme values may be limits of the assay; sequences stand for … in AGTGCAGAGAAAATCGGCCAGTTTTCTCTGCCTGCAGTCCGCATGCCGTGGGACCCCTTGGGTTCTAACCTGTTGCCTAGATTTATGCAGCGGACTGCCTTTCTCCCAAAGTGATAAACCGG…AGGTTGGTTTCACT; site = the 11-nt donor
In short: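 The measure is log10(CPM+1) for recombinant UMIs. These were PCR-amplified across the donor–target junction and sequenced after Escherichia coli carrying a donor and donor-binding-loop pair library and a target plasmid with T7-inducible IS621 bridge recombinase was plated on IPTG (0.07 mM) plus kanamycin or unselected. CPM were averaged over two replicates and scaled by control-derived factors.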
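Also: IS621 bridge recombinase in Escherichia coli cells against a fixed T5 target plasmid.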

| Sequence | recombinant UMI read abundance (log10) |
| --- | --- |
| ATGTAGGCATGGACCGGTTTTCCCGGTAATCCGTATTTGCC (site ATGTAGGCTGA) | 1.76 |
| ATGTAGGCATGGACCGGTTTTCCCGGTAATCCGTATTTGCC (site ATGTAGGCTGC) | 0 |
| ATGTAGGCATGGACCGGTTTTCCCGGTAATCCGTATTTGCC (site ATGTAGGCTGG) | 2.21 |
| ATGTAGGCATGGACCGGTTTTCCCGGTAATCCGTATTTGCC (site ATGTAGGCTGT) | 1.7 |
| ATGTAGTCATGGACCGGTTTTCCCGGTAATCCGTATTTGGT (site ATGTAGTCTAC) | 2.81 |
| ATTAAGTCATGGACCGGTTTTCCCGGTAATCCGTATTTGTA (site ATTAAGTCTTA) | 2.58 |
| ATTAGAACATGGACCGGTTTTCCCGGTAATCCGTATTTGAG (site AATAGAACTCT) | 0.403 |
| ATTAGAACATGGACCGGTTTTCCCGGTAATCCGTATTTGAG (site ACTAGAACTCT) | 0.665 |
| ATTAGAACATGGACCGGTTTTCCCGGTAATCCGTATTTGAG (site AGTAGAACTCT) | 0.286 |
| ATTAGAACATGGACCGGTTTTCCCGGTAATCCGTATTTGAG (site ATTAGAACTCT) | 1.22 |
| ATTAGGCCATGGACCGGTTTTCCCGGTAATCCGTATTTGAC (site ATAAGGCCTGT) | 0 |
| ATTAGGCCATGGACCGGTTTTCCCGGTAATCCGTATTTGAC (site ATCAGGCCTGT) | 0.0148 |
| ATTAGGCCATGGACCGGTTTTCCCGGTAATCCGTATTTGAC (site ATGAGGCCTGT) | 0 |
| ATTAGGCCATGGACCGGTTTTCCCGGTAATCCGTATTTGAC (site ATTAGGCCTGT) | 0 |
| ATTATCCCATGGACCGGTTTTCCCGGTAATCCGTATTTGCC (site ATTATCCCTGG) | 0.749 |
| ATTCACGCATGGACCGGTTTTCCCGGTAATCCGTATTTGCA (site ATTCACGCTTG) | 2.42 |
| ATTCAGCCATGGACCGGTTTTCCCGGTAATCCGTATTTGTT (site ATTCAGCCTAA) | 0.0136 |
| ATTCATACATGGACCGGTTTTCCCGGTAATCCGTATTTGGC (site ATTCATACTGC) | 1.81 |
| ATTCCATCATGGACCGGTTTTCCCGGTAATCCGTATTTGAC (site ATTCCATCTGT) | 0.764 |
| ATTCCGACATGGACCGGTTTTCCCGGTAATCCGTATTTGTG (site ATTCCGACTCA) | 0.00802 |
| ATTCGAGCATGGACCGGTTTTCCCGGTAATCCGTATTTGAA (site ATTCGAGCTTT) | 1.31 |
| ATTGAAACATGGACCGGTTTTCCCGGTAATCCGTATTTGGT (site ATTGAAACTAC) | 1.66 |
| ATTGAAACATGGACCGGTTTTCCCGGTAATCCGTATTTGGT (site ATTGACACTAC) | 0.0867 |
| ATTGAAACATGGACCGGTTTTCCCGGTAATCCGTATTTGGT (site ATTGAGACTAC) | 0.484 |
| ATTGAAACATGGACCGGTTTTCCCGGTAATCCGTATTTGGT (site ATTGATACTAC) | 0.0144 |

| Sequence | recombinant UMI read abundance (log10) |
| --- | --- |
| ATTGACCCATGGACCGGTTTTCCCGGTAATCCGTATTTGGA (site ATTGACCCTTC) | 0.0199 |
| ATTGAGACATGGACCGGTTTTCCCGGTAATCCGTATTTGGA (site ATTGAGACTAC) | 0.0442 |
| ATTGAGACATGGACCGGTTTTCCCGGTAATCCGTATTTGGA (site ATTGAGACTCC) | 0.663 |
| ATTGAGACATGGACCGGTTTTCCCGGTAATCCGTATTTGGA (site ATTGAGACTGC) | 0.645 |
| ATTGAGACATGGACCGGTTTTCCCGGTAATCCGTATTTGGA (site ATTGAGACTTC) | 1 |
| ATTGAGACATGGACCGGTTTTCCCGGTAATCCGTATTTGGT (site AATGAGACTAC) | 0.233 |
| ATTGAGACATGGACCGGTTTTCCCGGTAATCCGTATTTGGT (site ACTGAGACTAC) | 0.972 |
| ATTGAGACATGGACCGGTTTTCCCGGTAATCCGTATTTGGT (site AGTGAGACTAC) | 0.609 |
| ATTGAGACATGGACCGGTTTTCCCGGTAATCCGTATTTGGT (site ATAGAGACTAC) | 1.78 |
| ATTGAGACATGGACCGGTTTTCCCGGTAATCCGTATTTGGT (site ATCGAGACTAC) | 0.854 |
| ATTGAGACATGGACCGGTTTTCCCGGTAATCCGTATTTGGT (site ATGGAGACTAC) | 0.639 |
| ATTGAGACATGGACCGGTTTTCCCGGTAATCCGTATTTGGT (site ATTAAGACTAC) | 1.62 |
| ATTGAGACATGGACCGGTTTTCCCGGTAATCCGTATTTGGT (site ATTCAGACTAC) | 0.296 |
| ATTGAGACATGGACCGGTTTTCCCGGTAATCCGTATTTGGT (site ATTGAAACTAC) | 1.88 |
| ATTGAGACATGGACCGGTTTTCCCGGTAATCCGTATTTGGT (site ATTGACACTAC) | 0.0545 |
| ATTGAGACATGGACCGGTTTTCCCGGTAATCCGTATTTGGT (site ATTGAGACTAA) | 0.949 |
| ATTGAGACATGGACCGGTTTTCCCGGTAATCCGTATTTGGT (site ATTGAGACTAC) | 1.39 |
| ATTGAGACATGGACCGGTTTTCCCGGTAATCCGTATTTGGT (site ATTGAGACTAG) | 0.772 |
| ATTGAGACATGGACCGGTTTTCCCGGTAATCCGTATTTGGT (site ATTGAGACTAT) | 1.17 |
| ATTGAGACATGGACCGGTTTTCCCGGTAATCCGTATTTGGT (site ATTGAGACTCC) | 0.379 |
| ATTGAGACATGGACCGGTTTTCCCGGTAATCCGTATTTGGT (site ATTGAGACTGC) | 0.953 |
| ATTGAGACATGGACCGGTTTTCCCGGTAATCCGTATTTGGT (site ATTGAGACTTC) | 0.0155 |
| ATTGAGACATGGACCGGTTTTCCCGGTAATCCGTATTTGGT (site ATTGAGCCTAC) | 0.0258 |
| ATTGAGACATGGACCGGTTTTCCCGGTAATCCGTATTTGGT (site ATTGAGGCTAC) | 0.186 |
| ATTGAGACATGGACCGGTTTTCCCGGTAATCCGTATTTGGT (site ATTGAGTCTAC) | 1.06 |

| Sequence | recombinant UMI read abundance (log10) |
| --- | --- |
| ATTGAGACATGGACCGGTTTTCCCGGTAATCCGTATTTGGT (site ATTGATACTAC) | 0.512 |
| ATTGAGACATGGACCGGTTTTCCCGGTAATCCGTATTTGGT (site ATTGCGACTAC) | 0.151 |
| ATTGAGACATGGACCGGTTTTCCCGGTAATCCGTATTTGGT (site ATTGGGACTAC) | 0.407 |
| ATTGAGACATGGACCGGTTTTCCCGGTAATCCGTATTTGGT (site ATTGTGACTAC) | 0.471 |
| ATTGAGACATGGACCGGTTTTCCCGGTAATCCGTATTTGGT (site ATTTAGACTAC) | 0.353 |
| ATTGAGACATGGACCGGTTTTCCCGGTAATCCGTATTTGGT (site CTTGAGACTAC) | 0.935 |
| ATTGAGACATGGACCGGTTTTCCCGGTAATCCGTATTTGGT (site GTTGAGACTAC) | 0.235 |
| ATTGAGACATGGACCGGTTTTCCCGGTAATCCGTATTTGGT (site TTTGAGACTAC) | 0.435 |
| ATTGATACATGGACCGGTTTTCCCGGTAATCCGTATTTGGT (site ATTGAAACTAC) | 0.445 |
| ATTGATACATGGACCGGTTTTCCCGGTAATCCGTATTTGGT (site ATTGACACTAC) | 0.179 |
| ATTGATACATGGACCGGTTTTCCCGGTAATCCGTATTTGGT (site ATTGAGACTAC) | 0.00596 |
| ATTGATACATGGACCGGTTTTCCCGGTAATCCGTATTTGGT (site ATTGATACTAC) | 1.33 |
| ATTGCAACATGGACCGGTTTTCCCGGTAATCCGTATTTGGG (site ATTGCAACTCC) | 0.0185 |
| ATTGCCCCATGGACCGGTTTTCCCGGTAATCCGTATTTGTC (site ATTGCCCCTGA) | 0 |
| ATTGCGGCATGGACCGGTTTTCCCGGTAATCCGTATTTGCT (site ATTGCGGCTAG) | 1.27 |
| ATTGCGGCATGGACCGGTTTTCCCGGTAATCCGTATTTGCT (site CTTGCGGCTAG) | 0.161 |
| ATTGCGGCATGGACCGGTTTTCCCGGTAATCCGTATTTGCT (site GTTGCGGCTAG) | 0.0081 |
| ATTGCGGCATGGACCGGTTTTCCCGGTAATCCGTATTTGCT (site TTTGCGGCTAG) | 0.371 |
| ATTGCGGCATGGACCGGTTTTCCCGGTAATCCGTATTTGGG (site ATTGCGGCTCC) | 0.0219 |
| ATTGGTACATGGACCGGTTTTCCCGGTAATCCGTATTTGCG (site ATTGGTACTCG) | 1.35 |
| ATTGTGACATGGACCGGTTTTCCCGGTAATCCGTATTTGGT (site ATTGAGACTAC) | 0.524 |
| ATTGTGACATGGACCGGTTTTCCCGGTAATCCGTATTTGGT (site ATTGCGACTAC) | 0.0121 |
| ATTGTGACATGGACCGGTTTTCCCGGTAATCCGTATTTGGT (site ATTGGGACTAC) | 0.0143 |
| ATTGTGACATGGACCGGTTTTCCCGGTAATCCGTATTTGGT (site ATTGTGACTAC) | 0.925 |
| ATTGTTCCATGGACCGGTTTTCCCGGTAATCCGTATTTGGT (site ATTGTTCCTAC) | 0 |
